In experiment [1] the test system is B16F10 mouse melanoma cells. Kind of experiment: Measurement of relative melanin contents in α-MSH-stimulated cells. It counts as cell-based.
The next experiment addresses mushroom tyrosinase. Nature of the experiment: Tyrosinase inhibition assay. Type of experiment: biochemical. Conditions: L-tyrosine, 37 °C 20 min, three experiments, read-out: Tyrosinase inhibitory activity IC50. As to the method: The reaction was carried out in a 0.1 M potassium phosphate buffer (pH 6.5) containing 1.5 mM L-tyrosine and 1250 unit/mL mushroom tyrosinase and the reaction mixture was incubated at 37 °C for 20 min. The test samples were assayed for tyrosinase inhibition by measuring its effect on tyrosinase activity using an ELISA reader at 490 nm. Arbutin was used as a positive control. The inhibitory activity of the sample was expressed as the concentration that inhibits 50% of the enzyme activity (IC50).

The test system of experiment [2] is B16F10 mouse melanoma cells. Kind of experiment: Measurement of relative melanin contents in α-MSH-stimulated cells. Type of experiment: cell-based. Conditions: for activity at 25 µM / activity at 50 µM / activity at 100 µM / inhibition at 100 µM: Mus musculus, B16-F10; for activity at 25 µM / activity at 50 µM / activity at 100 µM: 100 nM α-MSH, 72 h; for activity at 100 µM / effect on melanin content compared to arbutin: 100 μM; for effect on melanin content compared to arbutin: arbutin 400 μM. As to the method:
B16F10 mouse melanoma cells were cultured in DMEM medium containing 10% FBS and 1% penicillin-streptomycin in a 37 °C incubator with 5% CO2. The cells were seeded in 100-mm tissue culture dishes to be used for subsequent experiments.
B16F10 cells (1 × 10^5/well) were seeded in 6 well plates for 24 h. The cells were then incubated in the presence of 100 nM α-MSH, and treated with various concentrations (25, 50, and 100 μM) of sample for 72 h. After being washed twice with PBS, the cells were dissolved of 1 N NaOH and 10% DMSO, incubated at 60 °C for 1 h, and mixed to solubilize the melanin. Relative melanin content was determined with an ELISA reader by absorbance at 405 nm.

For experiment [3], the target named is T1, PPE (porcine pancreas elastase) (Sus scrofa, UniProt P00772).
T1 construct: from tissue; host or cells: porcine pancreas
Nature of the experiment: Elastase inhibition assay. It counts as biochemical. As to the method: The reaction was carried out in a 50 mM Tris-HCl buffer (pH 8.5) containing 1 mg/mL N-succinyl-(Ala)3-p-nitroanilide and 0.6 U/mL PPE (porcine pancreas elastase). The test sample was added to the reaction mixture, and elastase inhibition was incubated at 25 °C for 10 min. The change in absorbance was measured at 405 nm using an ELISA reader. Ursolic acid was used as a positive control. The inhibitory activity of the sample was expressed as the concentration that inhibits 50% of the enzyme activity (IC50).

The mark [4] stands for this setting: porcine pancreas elastase, N-succinyl-(Ala)3-p-nitroanilide, 25 °C 10 min, three experiments, read-out: Elastase inhibitory activity IC50.
[5] abbreviates: at a concentration of 100 μM, read-out: inhibition of melanogenesis.
Where [6] appears, read: in the range of 50 ~ 100 μM, α-MSH-stimulated, read-out: inhibition percentage of melanin production.

Like-named read-outs stand apart in the source and are kept apart here. Some results are limits rather than exact numbers.

T1 sequence (P00772 27-266): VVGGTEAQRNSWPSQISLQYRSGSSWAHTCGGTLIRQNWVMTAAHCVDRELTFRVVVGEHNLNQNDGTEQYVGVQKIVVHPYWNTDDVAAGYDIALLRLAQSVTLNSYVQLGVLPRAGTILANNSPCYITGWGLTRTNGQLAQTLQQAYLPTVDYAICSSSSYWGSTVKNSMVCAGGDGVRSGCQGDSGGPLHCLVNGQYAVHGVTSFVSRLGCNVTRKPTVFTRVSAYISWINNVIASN

Consider `OC[C@H]1O[C@@H](Oc2ccc(O)cc2)[C@H](O)[C@@H](O)[C@@H]1O` [Arbutin], for which the activity at 400 µM in experiment [1] (B16-F10, 100 nM α-MSH, 72 h) was determined as 30.7 ± 3.34%. Also, the inhibition (in general, the change of the read-out against control, counted positive when it falls) at 400 µM in experiment [1] (B16-F10, α-MSH-stimulated, read-out: inhibition rate of melanin production) worked out at 69.2%. For the same compound, on mushroom tyrosinase, the IC50 (as a rule, the concentration that gives 50% inhibition) amounted to 474 ± 18.2 µM.

For `COc1cc(C(=O)O)ccc1O` [Compound 1, Vanillic acid], in experiment [2], the activity at 25 µM stood at 91.3 ± 4.81%, the activity at 50 µM came to 74.78 ± 0.69% and the activity at 100 µM amounted to 64 ± 1.45%. Also, the 50% inhibitory concentration (IC50) in experiment [3] (setting [4]) was greater than 1000 µM.

Turning to `OC[C@H]1O[C@@H](Oc2cc(O)cc(/C=C/c3ccc(O)cc3)c2)[C@H](O)[C@@H](O)[C@@H]1O` [Compound 2, trans-Piceid], in experiment [2], the activity at 25 µM was 136 ± 3.36%, the activity at 50 µM was 132 ± 6.52% and the activity at 100 µM was 116 ± 6.39%. Moreover, in experiment [3] (setting [4]), the half-inhibitory concentration (IC50) was greater than 1000 µM. Also, on mushroom tyrosinase, the half-inhibitory concentration (IC50) is 51.2 ± 5.5 µM.

For the compound `Oc1cc(O)cc(/C=C/c2ccc(O)cc2O)c1` [Compound 3, Oxyresveratrol], in experiment [2], the activity at 25 µM is 118 ± 3.73%, the activity at 50 µM was determined as 109 ± 1.96% and the activity at 100 µM was found to be 29.6 ± 2.21%. In experiment [2] (setting [5]), the inhibition at 100 µM was 70.4 to 91%. In experiment [3], this compound had an IC50 greater than 1000 µM. The IC50 at mushroom tyrosinase amounted to 6.42 ± 0.45 µM.

Regarding `Oc1ccc(/C=C/c2cc(O)cc(O)c2)cc1` [Compound 4, Resveratrol], the “effect on melanin content compared to arbutin” value (“effect … compared to arbutin” below) in experiment [2] (α-MSH-stimulated) is listed as “greatly decreased”. In experiment [2], the activity at 25 µM was 82.3 ± 1.18%, the activity at 50 µM was 27.3 ± 5.83% and the activity at 100 µM was found to be 17.3 ± 0.01%. Besides, the inhibition at 100 µM in experiment [2] (setting [5]) lay within 70.4 to 91%. In addition, in experiment [2] (setting [6]), the inhibition at 100 µM fell in the range of 72.7 to 82.7%. The 50% inhibitory concentration (IC50) in experiment [3] (setting [4]) was greater than 1000 µM. Besides, the IC50 on mushroom tyrosinase worked out at 19.8 ± 0.77 µM.

On to `O=c1cc(-c2ccc(O)c(O)c2)oc2cc(O)cc(O)c12` [Compound 5, Luteolin], for which the “effect … compared to arbutin” value in experiment [2] (α-MSH-stimulated) is listed as “greatly decreased”. Besides, in experiment [2], the activity at 25 µM is 18 ± 0.76%, the activity at 50 µM amounted to 16.4 ± 1.65% and the activity at 100 µM stood at 8.99 ± 0.73%. In experiment [2] (setting [5]), the inhibition at 100 µM lay within 70.4 to 91%. In addition, the inhibition at 100 µM in experiment [2] (setting [6]) lay within 83.5 to 91%. Besides, the IC50 in experiment [3] (setting [4]) amounted to 292 ± 14.4 µM. Also, the IC50 at mushroom tyrosinase worked out at 37.9 ± 1.04 µM.

As for `O=c1cc(-c2ccc(O)cc2)oc2cc(O)cc(O)c12` [Compound 6, Apigenin], in experiment [2], the activity at 25 µM was 83.6 ± 3.01%, the activity at 50 µM was found to be 63.2 ± 2.11% and the activity at 100 µM is 16.2 ± 1.52%. For the same compound, in experiment [2] (setting [5]), the inhibition at 100 µM fell in the range of 70.4 to 91%. In experiment [3] (setting [4]), the IC50 is greater than 1000 µM. Moreover, on mushroom tyrosinase, the half-maximal inhibitory concentration (IC50) is greater than 100 µM.

On to `COc1cc(-c2cc(=O)c3c(O)cc(O)cc3o2)cc(OC)c1O` [Compound 7, Tricin], for which, in experiment [2], the activity at 25 µM turned out to be 65.2 ± 1.18%, the activity at 50 µM amounted to 65.4 ± 1.41% and the activity at 100 µM worked out at 56.4 ± 0.89%. The IC50 in experiment [3] (setting [4]) is greater than 1000 µM. Further, the IC50 on mushroom tyrosinase is greater than 100 µM.

As for `COc1cc(-c2cc(=O)c3c(O)cc(O)cc3o2)ccc1O` [Compound 8, Chrysoeriol], the “effect … compared to arbutin” value in experiment [2] (α-MSH-stimulated) is “greatly decreased”. In experiment [2], the activity at 25 µM was 37 ± 4.57%, the activity at 50 µM came to 27.3 ± 0.8% and the activity at 100 µM was determined as 23.4 ± 2.19%. The inhibition at 100 µM in experiment [2] (setting [5]) was 70.4 to 91%. Besides, in experiment [2] (setting [6]), the inhibition at 100 µM lay in the range of 72.6 to 76.6%.

As to `C[C@H]1[C@H](C)CC[C@]2(C(=O)O)CC[C@]3(C)C(=CC[C@@H]4[C@@]5(C)CC[C@H](O)C(C)(C)[C@@H]5CC[C@]43C)[C@H]12` [Ursolic acid, reference compound], the IC50 in experiment [3] (setting [4]) is 96.9 ± 1.33 µM.

These data come from paper PMC10965189, “Phytochemical investigation on the aerial parts of Veratrum versicolor f. viride Nakai and their biological activities” (Turkish Journal of Chemistry, 2023).
